Experimental data from patent US9403832B2, “Pyrazolo[1,5-a]pyrimidine-based compounds, compositions comprising them, and methods of their use” (Lexicon Pharmaceuticals, Inc., priority 2012, dated 2016).

Columns and labels:
[1] = biological target: T1, AAK1 (Homo sapiens, UniProt Q2M2I8); experiment: P81 filter plate assay; assay type: biochemical; settings: full-length human AAK1, Mu2 substrate, 33P-ATP
T1 construct: NP_055726.2
Summary of the method: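 Full-length human AAK1 (0.2 nM, 2×) was pre-incubated 10 min at RT with compounds (top concentration 96 μM in the dilution plate), then reacted 1 h at RT with full-length human Mu2 (0.2 μM, 2×), cold ATP (2 μM, 2×) and ³³P-ATP. Reactions were stopped with phosphoric acid and captured on P81 filters for scintillation counting.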

[2] = biological target: T1, AAK1; experiment: HEK281 cell-based assay (CBA); settings: HEK293F cells transfected with full length human AAK1 and AP2M1; phospho-mu2 Western blot; 3 hours incubation
Summary of the method: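 HEK293F cells co-transfected with full-length human AAK1/HA and Flag-AP2M1 (mu2), then treated in suspension with compounds (5 concentrations, 3-fold steps) in DMEM+0.5% FBS for 3 hours at 37° C. Phospho-mu2 and total mu2 (anti-Flag) assessed by Western blot.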

T1 sequence (Q2M2I8 1-863 isoform Q2M2I8-2): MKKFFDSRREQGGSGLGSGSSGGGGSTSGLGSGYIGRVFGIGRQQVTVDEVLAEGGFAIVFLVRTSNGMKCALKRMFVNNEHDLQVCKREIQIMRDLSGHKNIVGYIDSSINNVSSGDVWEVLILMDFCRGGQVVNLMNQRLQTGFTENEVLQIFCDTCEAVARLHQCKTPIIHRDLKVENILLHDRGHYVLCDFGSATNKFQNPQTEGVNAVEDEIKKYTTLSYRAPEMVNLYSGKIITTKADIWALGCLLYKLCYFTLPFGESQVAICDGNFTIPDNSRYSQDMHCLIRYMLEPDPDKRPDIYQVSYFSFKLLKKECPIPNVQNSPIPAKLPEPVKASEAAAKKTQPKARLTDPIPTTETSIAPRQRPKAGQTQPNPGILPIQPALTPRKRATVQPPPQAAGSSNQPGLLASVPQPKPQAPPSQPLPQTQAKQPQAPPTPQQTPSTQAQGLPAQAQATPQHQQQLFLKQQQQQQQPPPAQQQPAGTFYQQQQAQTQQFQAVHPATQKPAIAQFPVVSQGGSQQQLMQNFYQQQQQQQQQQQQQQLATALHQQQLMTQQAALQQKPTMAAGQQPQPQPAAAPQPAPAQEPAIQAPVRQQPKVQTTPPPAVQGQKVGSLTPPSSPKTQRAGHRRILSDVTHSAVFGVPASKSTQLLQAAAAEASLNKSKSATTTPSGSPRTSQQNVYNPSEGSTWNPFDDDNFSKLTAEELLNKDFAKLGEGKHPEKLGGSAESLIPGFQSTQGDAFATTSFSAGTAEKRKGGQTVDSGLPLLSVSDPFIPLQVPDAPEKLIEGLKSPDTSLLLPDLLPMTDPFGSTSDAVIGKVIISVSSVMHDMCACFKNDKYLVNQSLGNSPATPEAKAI

SMILES	melting point [°C]	IC50 [1] [µM]	IC50 [2] [µM]
COCCOC(=O)N1CCN(c2ccn3ncc(-c4ccc(C)nc4OC)c3n2)CC1 [2-methoxyethyl 4-(3-(2-methoxy-6-methylpyridin-3-yl)pyrazolo[1,5-a]pyrimidin-5-yl)piperazine-1-carboxylate]	–	≤ 0.01	≤ 0.1
COc1ccc(F)cc1-c1cnn2ccc(N3CCN(C(=O)[C@@H](N)CC(C)C)CC3)nc12 [(S)-2-amino-1-(4-(3-(5-fluoro-2-methoxyphenyl)pyrazolo[1,5-a]pyrimidin-5-yl)piperazin-1-yl)-4-methylpentan-1-one]	–	≤ 0.01	≤ 0.01

More lines, now with the values ahead:

melting point [°C]	IC50 [1] [µM]	IC50 [2] [µM]	SMILES
140 to 141	–	–	CN(CCNc1ccn2ncc(-c3cccs3)c2n1)C(=O)OC(C)(C)C [Example 5.6.4, Methyl-[2-(3-thiophen-2-yl-pyrazolo[1,5-a]pyrimidin-5-ylamino)-ethyl]-carbamic acid tert-butyl ester]
–	≤ 0.01	≤ 0.1	COc1ncccc1-c1cnn2ccc(N3CCN(C(=O)C4(N)CCOC4)CC3)nc12 (stereo not drawn) [(3-aminotetrahydrofuran-3-yl)(4-(3-(2-methoxypyridin-3-yl)pyrazolo[1,5-a]pyrimidin-5-yl)piperazin-1-yl)methanone]
–	≤ 0.01	≤ 0.01	COc1ccc(F)cc1-c1cnn2ccc(N3CCN(C(=O)OC(C)(C)C)CC3)nc12 [tert-butyl 4-(3-(5-fluoro-2-methoxyphenyl)pyrazolo[1,5-a]pyrimidin-5-yl)piperazine-1-carboxylate]
